Test results from US20240132521A1, “COMPOUNDS AND METHODS FOR MODULATING HER2” (Iambic Therapeutics, Inc., priority 2022, published 2024).

Tests used:
Format in all cases: cell-based
[1] = target: BaF3_HER2WT cells (Homo sapiens, UniProt P04626); assay: Cell growth inhibition assay (CellTiterGlo), BaF3_HER2WT; settings: 3-day treatment, CellTiterGlo, read-out: Cell growth inhibition activity, HER2 WT
[2] = target: BaF3_HER2YVMA cells (Homo sapiens, UniProt P04626, DUP772-775, cells depend on it); assay: Cell growth inhibition assay (CellTiterGlo), BaF3_HER2YVMA; settings: 3-day treatment, CellTiterGlo, read-out: Cell growth inhibition activity, HER2 - YVMA
Sequence of BaF3_HER2YVMA cells (P04626 with tags, fused parts or gaps DUP772-775): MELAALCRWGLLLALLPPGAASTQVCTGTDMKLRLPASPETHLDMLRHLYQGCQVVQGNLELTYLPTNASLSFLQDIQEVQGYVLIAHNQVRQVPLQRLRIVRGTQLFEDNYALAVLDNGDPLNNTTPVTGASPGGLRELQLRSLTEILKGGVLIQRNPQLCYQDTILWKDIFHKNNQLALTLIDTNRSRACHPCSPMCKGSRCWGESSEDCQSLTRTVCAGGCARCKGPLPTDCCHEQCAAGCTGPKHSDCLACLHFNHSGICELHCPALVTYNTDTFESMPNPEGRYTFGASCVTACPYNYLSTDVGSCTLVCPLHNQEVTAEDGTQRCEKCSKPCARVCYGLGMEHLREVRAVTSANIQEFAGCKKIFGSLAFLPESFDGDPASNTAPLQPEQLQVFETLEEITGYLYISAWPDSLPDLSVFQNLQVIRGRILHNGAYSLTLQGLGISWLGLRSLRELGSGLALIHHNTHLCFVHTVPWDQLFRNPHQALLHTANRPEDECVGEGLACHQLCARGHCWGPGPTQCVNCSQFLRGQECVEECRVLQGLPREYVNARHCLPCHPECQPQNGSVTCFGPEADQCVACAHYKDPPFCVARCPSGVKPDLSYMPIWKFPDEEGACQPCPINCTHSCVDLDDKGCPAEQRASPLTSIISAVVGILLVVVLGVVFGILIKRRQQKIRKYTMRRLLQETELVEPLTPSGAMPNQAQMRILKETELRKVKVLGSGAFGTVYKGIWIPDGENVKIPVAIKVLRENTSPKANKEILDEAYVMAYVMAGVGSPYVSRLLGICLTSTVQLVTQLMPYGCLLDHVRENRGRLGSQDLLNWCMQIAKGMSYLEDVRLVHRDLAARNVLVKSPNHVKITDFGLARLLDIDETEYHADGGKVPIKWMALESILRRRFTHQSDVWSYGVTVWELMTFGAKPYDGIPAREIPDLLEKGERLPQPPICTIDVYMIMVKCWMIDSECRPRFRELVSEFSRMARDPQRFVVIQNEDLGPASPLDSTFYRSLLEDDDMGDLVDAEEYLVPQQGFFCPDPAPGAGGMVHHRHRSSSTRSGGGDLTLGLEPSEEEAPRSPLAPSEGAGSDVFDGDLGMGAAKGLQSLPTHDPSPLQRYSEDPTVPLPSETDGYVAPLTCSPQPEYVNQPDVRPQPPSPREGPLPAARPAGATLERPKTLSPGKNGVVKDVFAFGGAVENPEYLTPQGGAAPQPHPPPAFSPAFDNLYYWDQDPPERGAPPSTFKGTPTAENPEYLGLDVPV

[3] = target: BaF3_EGFRWT cells (Homo sapiens, UniProt P00533); assay: Cell growth inhibition assay (CellTiterGlo), BaF3_EGFRWT; settings: 3-day treatment, CellTiterGlo, read-out: Cell growth inhibition activity, EGFR WT
Sequence of BaF3_EGFRWT cells (P00533 whole entry, change not shown): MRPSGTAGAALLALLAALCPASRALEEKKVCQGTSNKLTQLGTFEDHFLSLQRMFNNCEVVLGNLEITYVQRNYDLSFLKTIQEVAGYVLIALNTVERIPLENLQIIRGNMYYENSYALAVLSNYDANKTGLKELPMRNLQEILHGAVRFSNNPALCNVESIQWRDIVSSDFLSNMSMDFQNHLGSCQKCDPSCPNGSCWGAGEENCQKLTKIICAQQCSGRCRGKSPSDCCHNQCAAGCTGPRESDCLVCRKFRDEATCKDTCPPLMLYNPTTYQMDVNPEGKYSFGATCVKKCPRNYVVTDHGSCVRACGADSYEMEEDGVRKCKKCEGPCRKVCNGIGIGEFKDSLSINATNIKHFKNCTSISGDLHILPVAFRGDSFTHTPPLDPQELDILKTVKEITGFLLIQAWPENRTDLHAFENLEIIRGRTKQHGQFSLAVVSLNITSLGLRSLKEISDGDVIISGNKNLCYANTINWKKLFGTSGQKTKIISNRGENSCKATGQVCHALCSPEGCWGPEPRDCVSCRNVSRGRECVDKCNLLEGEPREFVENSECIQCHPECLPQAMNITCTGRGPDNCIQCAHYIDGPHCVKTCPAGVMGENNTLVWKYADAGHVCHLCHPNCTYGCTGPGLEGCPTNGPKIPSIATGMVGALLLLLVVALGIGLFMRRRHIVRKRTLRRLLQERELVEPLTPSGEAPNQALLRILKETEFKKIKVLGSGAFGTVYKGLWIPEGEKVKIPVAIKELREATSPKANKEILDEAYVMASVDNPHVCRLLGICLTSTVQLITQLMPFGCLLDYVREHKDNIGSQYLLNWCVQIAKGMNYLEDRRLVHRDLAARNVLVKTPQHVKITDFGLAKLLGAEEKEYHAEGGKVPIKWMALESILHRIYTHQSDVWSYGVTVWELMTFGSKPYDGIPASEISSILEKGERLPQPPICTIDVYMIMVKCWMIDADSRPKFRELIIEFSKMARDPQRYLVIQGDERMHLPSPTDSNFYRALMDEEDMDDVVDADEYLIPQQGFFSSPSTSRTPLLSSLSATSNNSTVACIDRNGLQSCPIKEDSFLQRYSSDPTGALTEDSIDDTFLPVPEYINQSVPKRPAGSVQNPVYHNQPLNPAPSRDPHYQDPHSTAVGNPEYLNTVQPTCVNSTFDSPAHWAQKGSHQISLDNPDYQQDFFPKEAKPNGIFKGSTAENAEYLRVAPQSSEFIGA

Sequence of BaF3_HER2WT cells (P04626 whole entry, change not shown): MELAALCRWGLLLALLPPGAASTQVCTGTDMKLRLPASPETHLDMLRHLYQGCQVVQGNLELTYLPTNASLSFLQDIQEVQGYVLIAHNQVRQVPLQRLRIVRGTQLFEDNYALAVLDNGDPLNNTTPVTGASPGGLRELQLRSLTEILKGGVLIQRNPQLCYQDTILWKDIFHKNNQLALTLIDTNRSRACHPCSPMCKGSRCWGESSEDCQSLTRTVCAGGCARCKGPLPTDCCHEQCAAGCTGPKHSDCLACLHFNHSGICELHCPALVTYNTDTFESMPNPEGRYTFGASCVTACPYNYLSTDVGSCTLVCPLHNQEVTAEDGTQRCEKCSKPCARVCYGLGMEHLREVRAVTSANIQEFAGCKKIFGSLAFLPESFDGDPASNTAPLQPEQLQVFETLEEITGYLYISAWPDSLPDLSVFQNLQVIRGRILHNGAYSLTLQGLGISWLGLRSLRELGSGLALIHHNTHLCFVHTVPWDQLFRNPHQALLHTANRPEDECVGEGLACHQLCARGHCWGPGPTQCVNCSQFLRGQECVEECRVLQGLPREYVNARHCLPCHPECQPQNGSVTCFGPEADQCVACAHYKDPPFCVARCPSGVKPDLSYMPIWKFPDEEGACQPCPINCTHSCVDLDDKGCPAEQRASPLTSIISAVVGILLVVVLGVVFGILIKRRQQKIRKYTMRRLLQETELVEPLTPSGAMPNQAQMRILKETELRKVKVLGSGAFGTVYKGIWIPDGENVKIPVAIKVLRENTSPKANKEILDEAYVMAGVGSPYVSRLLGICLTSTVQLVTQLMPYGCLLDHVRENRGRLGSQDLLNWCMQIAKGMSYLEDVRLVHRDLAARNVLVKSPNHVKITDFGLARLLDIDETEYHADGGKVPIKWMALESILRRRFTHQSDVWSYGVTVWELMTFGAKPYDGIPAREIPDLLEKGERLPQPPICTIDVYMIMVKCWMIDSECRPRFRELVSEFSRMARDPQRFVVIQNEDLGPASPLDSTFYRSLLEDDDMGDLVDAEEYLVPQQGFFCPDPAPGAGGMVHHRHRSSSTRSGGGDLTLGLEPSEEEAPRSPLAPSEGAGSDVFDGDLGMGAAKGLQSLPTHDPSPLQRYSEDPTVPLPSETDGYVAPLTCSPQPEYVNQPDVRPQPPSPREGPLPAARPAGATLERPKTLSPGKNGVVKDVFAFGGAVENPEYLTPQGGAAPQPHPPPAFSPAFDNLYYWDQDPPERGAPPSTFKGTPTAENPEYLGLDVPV

Row | SMILES | GI50 [1] [nM] | GI50 [2] [nM] | GI50 [3] [nM]
1 | C=CC(=O)N1CCC2CCC(C1)N2c1ccn2ncnc(Nc3ccc(Oc4ccn5ncnc5c4)c(C)c3)c12 (stereo not drawn) [Example 55, 1-(9-(4-((4-([1,2,4]triazolo[1,5-a]pyridin-7-yloxy)-3-methylphenyl)amino)pyrrolo[2,1-f][1,2,4]triazin-5-yl)-3,9-diazabicyclo[4.2.1]nonan-3-yl)prop-2-en-1-one] | < 200 | 500 to 1500 | 1500 to 5000
2 | Cc1cc(Nc2ncnn3ccc(C4CCN(C(=O)/C=C/CN5CCOCC5)CC4)c23)ccc1Oc1ccn2ncnc2c1 [Example 56, (E)-1-(4-(4-((4-([1,2,4]triazolo[1,5-a]pyridin-7-yloxy)-3-methylphenyl)amino)pyrrolo[2,1-f][1,2,4]triazin-5-yl)piperidin-1-yl)-4-morpholinobut-2-en-1-one] | < 200 | < 200 | 1500 to 5000
3 | Cc1cc(Nc2ncnn3ccc(C4CCN(C(=O)/C=C/CN5CCCCC5)CC4)c23)ccc1Oc1ccn2ncnc2c1 [Example 57, (E)-1-(4-(4-((4-([1,2,4]triazolo[1,5-a]pyridin-7-yloxy)-3-methylphenyl)amino)pyrrolo[2,1-f][1,2,4]triazin-5-yl)piperidin-1-yl)-4-(piperidin-1-yl)but-2-en-1-one] | < 200 | < 200 | 1500 to 5000
4 | COC/C=C/C(=O)N1CCC(c2ccn3ncnc(Nc4ccc(Oc5ccn6ncnc6c5)c(C)c4)c23)CC1 [Example 58, (E)-1-(4-(4-((4-([1,2,4]triazolo[1,5-a]pyridin-7-yloxy)-3-methylphenyl)amino)pyrrolo[2,1-f][1,2,4]triazin-5-yl)piperidin-1-yl)-4-methoxybut-2-en-1-one] | < 200 | 500 to 1500 | 1500 to 5000
5 | C#CCN(C)C/C=C/C(=O)N1CCC(c2ccn3ncnc(Nc4ccc(Oc5ccn6ncnc6c5)c(C)c4)c23)CC1 [Example 59, (E)-1-(4-(4-((4-([1,2,4]triazolo[1,5-a]pyridin-7-yloxy)-3-methylphenyl)amino)pyrrolo[2,1-f][1,2,4]triazin-5-yl)piperidin-1-yl)-4-(methyl(prop-2-yn-1-yl)amino)but-2-en-1-one] | < 200 | 200 to 500 | 1500 to 5000
6 | Cc1cc(Nc2ncnn3ccc(C4CN(C(=O)/C=C/CN5CCC(F)CC5)C4)c23)ccc1Oc1ccn2ncnc2c1 [Example 62, (E)-1-(3-(4-((4-([1,2,4]triazolo[1,5-a]pyridin-7-yloxy)-3-methylphenyl)amino)pyrrolo[2,1-f][1,2,4]triazin-5-yl)azetidin-1-yl)-4-(4-fluoropiperidin-1-yl)but-2-en-1-one] | < 200 | < 200 | 1500 to 5000
7 | Cc1cc(Nc2ncnn3ccc(N4CCN(C(=O)C(F)Cl)CC(F)(F)C4)c23)ccc1Oc1ccn2ncnc2c1 (stereo not drawn) [Example 63, 1-(4-(4-((4-([1,2,4]triazolo[1,5-a]pyridin-7-yloxy)-3-methylphenyl)amino)pyrrolo[2,1-f][1,2,4]triazin-5-yl)-6,6-difluoro-1,4-diazepan-1-yl)-2-chloro-2-fluoroethan-1-one] | 500 to 1500 | 500 to 1500 | 1500 to 5000
8 | Cc1cc(Nc2ncnn3ccc(C4CCN(C(=O)C#CCN(C)C)CC4)c23)ccc1Oc1ccn2ncnc2c1 [Example 64, 1-(4-(4-((4-([1,2,4]triazolo[1,5-a]pyridin-7-yloxy)-3-methylphenyl)amino)pyrrolo[2,1-f][1,2,4]triazin-5-yl)piperidin-1-yl)-4-(dimethylamino)but-2-yn-1-one] | < 200 | < 200 | 200 to 500
9 | Cc1cc(Nc2ncnn3ccc(C4CCN(C(=O)/C=C/C5CCCN5C)CC4)c23)ccc1Oc1ccn2ncnc2c1 (stereo not drawn) [Example 65, (E)-1-(4-(4-((4-([1,2,4]triazolo[1,5-a]pyridin-7-yloxy)-3-methylphenyl)amino)pyrrolo[2,1-f][1,2,4]triazin-5-yl)piperidin-1-yl)-3-(1-methylpyrrolidin-2-yl)prop-2-en-1-one] | < 200 | < 200 | 1500 to 5000
10 | Cc1cc(Nc2ncnn3ccc(C4CN(C(=O)/C=C/C5CCCN5C)C4)c23)ccc1Oc1ccn2ncnc2c1 (stereo not drawn) [Example 66, (E)-1-(3-(4-((4-([1,2,4]triazolo[1,5-a]pyridin-7-yloxy)-3-methylphenyl)amino)pyrrolo[2,1-f][1,2,4]triazin-5-yl)azetidin-1-yl)-3-(1-methylpyrrolidin-2-yl)prop-2-en-1-one] | < 200 | < 200 | 1500 to 5000
11 | C=C(CN(C)C)C(=O)N1CC(c2ccn3ncnc(Nc4ccc(Oc5ccc6c(c5)ncn6C)c(C)c4)c23)C1 [Example 67, 2-((dimethylamino)methyl)-1-(3-(4-((3-methyl-4-((1-methyl-1H-benzo[d]imidazol-5-yl)oxy)phenyl)amino)pyrrolo[2,1-f][1,2,4]triazin-5-yl)azetidin-1-yl)prop-2-en-1-one] | < 200 | < 200 | 500 to 1500
12 | Cc1cc(Nc2ncnn3ccc(N4CCCC(N(C)C(=O)/C=C/CN(C)C)C4)c23)ccc1Oc1ccn2ncnc2c1 (stereo not drawn) [Example 68, (E)-N-(1-(4-((4-([1,2,4]triazolo[1,5-a]pyridin-7-yloxy)-3-methylphenyl)amino)pyrrolo[2,1-f][1,2,4]triazin-5-yl)piperidin-3-yl)-4-(dimethylamino)-N-methylbut-2-enamide] | < 200 | < 200 | 1500 to 5000
13 | C=CC(=O)N(C)C1CCCN(c2ccn3ncnc(Nc4ccc(Oc5ccn6ncnc6c5)c(C)c4)c23)C1 (stereo not drawn) [Example 69, N-(1-(4-((4-([1,2,4]triazolo[1,5-a]pyridin-7-yloxy)-3-methylphenyl)amino)pyrrolo[2,1-f][1,2,4]triazin-5-yl)piperidin-3-yl)-N-methylacrylamide] | < 200 | 200 to 500 | 1500 to 5000
14 | Cc1cc(Nc2ncnn3ccc(N4CCC(N(C)C(=O)/C=C/CN(C)C)C4)c23)ccc1Oc1ccn2ncnc2c1 (stereo not drawn) [Example 70, (E)-N-(1-(4-((4-([1,2,4]triazolo[1,5-a]pyridin-7-yloxy)-3-methylphenyl)amino)pyrrolo[2,1-f][1,2,4]triazin-5-yl)pyrrolidin-3-yl)-4-(dimethylamino)-N-methylbut-2-enamide] | < 200 | < 200 | 1500 to 5000
15 | Cc1cc(Nc2ncnn3ccc(N4CC(NC(=O)/C=C/CN(C)C)C4)c23)ccc1Oc1ccn2ncnc2c1 [Example 71, (E)-N-(1-(4-((4-([1,2,4]triazolo[1,5-a]pyridin-7-yloxy)-3-methylphenyl)amino)pyrrolo[2,1-f][1,2,4]triazin-5-yl)azetidin-3-yl)-4-(dimethylamino)but-2-enamide] | < 200 | 200 to 500 | 1500 to 5000
16 | C=CC(=O)N(C)C1CCN(c2ccn3ncnc(Nc4ccc(Oc5ccn6ncnc6c5)c(C)c4)c23)C1 (stereo not drawn) [Example 72, N-(1-(4-((4-([1,2,4]triazolo[1,5-a]pyridin-7-yloxy)-3-methylphenyl)amino)pyrrolo[2,1-f][1,2,4]triazin-5-yl)pyrrolidin-3-yl)-N-methylacrylamide] | < 200 | < 200 | 1500 to 5000
